Results on three substances are retold here after patent US9731013B2 (UNIVERSITY OF FLORIDA RESEARCH FOUNDATION, INC., priority 2008, dated 2017).

The nature of data set [1]: Water solubility observation of samples. The data set is classed as physicochemical.
A short description of data set [2]: Radiofrequency (RF) heating of samples dissolved or suspended in water. The format is physicochemical. To be noted: RF 13.56 MHz, 500 W, 250 μL sample in water; for temperature rise (in words): up to five minutes. The procedure: FIG. 1 is a plot of the temperature rise of samples comprising functionalized fullerenes according to embodiments of the invention that are dissolved or suspended in water during irradiation with RF at 13.56 MHz and 500 W RF power over a period of five minutes.
FIG. 2 is a bar graph of the temperature rise of samples comprising functionalized fullerenes according to embodiments of the invention that are dissolved or suspended in water after irradiation with RF at 13.56 MHz and 500 W RF power for 30 seconds (left bars) and 60 seconds (right bars).
Heating of a volume of water by irradiation of fullerene comprising compounds was carried out using a radiofrequency (RF) heating system (Therm Med, LLC, Erie, Pa.) operating at 13.56 MHz and 500 W RF power. A volume of 250 μL of sample dissolved or suspended in water was pipetted into a cylindrical quartz cuvette for RF exposure. The cuvette was placed on a thin horizontal Teflon sample holder positioned at a depth of 7.6 cm from RF generator.

Consider Gadofullerenes (Gd@C82) [GdF], for which the “water solubility (in words)” value in data set [1] is reported as “not water soluble”. The “temperature rise in 5 minutes” value in data set [2] (5 minutes) is 10 °C.

Regarding Polyhydroxy fullerenes [PBU], the “temperature rise (in words)” value in data set [2] is “Temperature rise was observed”.

As to Pristine C60 [FN, reference compound], the “water solubility (in words)” value in data set [1] is “not water soluble”. Also, in data set [2], the “temperature rise (in words)” value is on record as “did not show a temperature rise”.
